From patent publication US20110200165A1, “CONTRAST AGENT-REINFORCED RADIOTHERAPY HAVING HIGH-OUTPUT TUBES” (BAYER SCHERING PHARMA AKTIENGESELLSCHAFT, priority 2008, published 2011)

Tests used:
[1] = rat, in vivo
Description: The contrast medium can also be intraarterially introduced into the vessel as in interventional angiography. To this end, a catheter is positioned in front of the outlet of the vascular section of interest. In the GS9L rat tumor model, the contrast medium concentration in the tumor was studied at a low flow rate for an intraarterial administration in 4 animals. To this end, the carotid artery was catheterized on day 10 after inoculation of the tumor cells, and a cannula was placed in the internal carotid artery (19). Via the latter, Isovist 300 was administered in a dosage of 2 g of iodine within 6 minutes. CT images of the rat head were made at the points in time 0, 1, 2, . . . 15 and 20 minutes after the beginning of the injection. For evaluation, the DynEva equipment software was used. The mean absorption in the tumor, adjacent healthy brain areas and in adjacent skin areas was determined for each point in time and converted into the corresponding iodine concentration. […] Relative to an intravenous administration, the plateau phase is extended to 60-120 seconds, and the drop in iodine concentration is slower. During the contrast medium administration phase, iodine accumulates analogously in the tumor and reaches a plateau after the end of the latter. […] In the healthy brain tissue, only very low iodine concentrations<0.5 mg/ml were observed.

[2] = test system: glioblastoma (GS9L) rat tumor model; assay: Contrast medium-enhanced CT radiation therapy, survival, glioblastoma (GS9L) rat tumor model; type: in vivo; conditions: 2 g of iodine/kg i.v. within 6 minutes before each of 6 sessions of 3 Gy, 140 kV, total 18 Gy; versus irradiation with common salt and untreated
Description: The therapeutic effectiveness of the contrast medium-enhanced radiation therapy was examined on a glioblastoma (GS9L) rat tumor model. To this end, male Fisher rats were inoculated stereotactically with 5 […]I of cell suspension (10^6 glioblastoma 9L cells) in the brain. After 8 days, the tumor growth was ensured by means of MRT, and the animals were divided into 3 groups (n=5). The animals of group 1 received no therapy and were used as a control. Animals of groups 2 and 3 passed through a CT radiation therapy with a total dose of 18 Gy at a tube voltage of 140 kV (Volume Zoom, Siemens Medical Solutions, Erlangen). Six therapy sessions were performed (2 per day at an interval of 4 hours), and one dose of 3 Gy was administered to the animals in each case. The radiation was limited to the tumor using the layer collimators and introduced within 90 s, which corresponds to a tumor-dose rate of 2 Gy/minute. Before each therapy session, a dimeric contrast medium (Isovist 300, Bayer Schering Pharma, Berlin) in a dose of 2 g of iodine/kg of body weight was administered to the animals of group 2. The latter was administered intravenously, within 6 minutes. With this application scheme, a maximum iodine-tumor concentration in a short plateau phase of between 6 and 7 minutes is achieved (FIG. 14). […]

[3] = test system: glioblastoma (GS9L) rat tumor model; assay: Contrast medium-enhanced radiation therapy compared with linear accelerator, glioblastoma (GS9L) rat tumor model; type: in vivo
Procedure: For examination of the therapeutic effectiveness of the contrast medium-enhanced radiation therapy with a high dose rate, the latter was compared to the therapeutic standard, i.e., a radiation therapy on the linear accelerator. To this end, a glioblastoma (GS9L) rat tumor model was used. Male Fischer rats were stereotactially inoculated with 5 µl of cell suspension (10^6 glioblastoma 9L cells) in the brain. After 8 days, the to growth was ensured by means of MRT, and the animals were divided into 3 groups. The animals of group 1 (n=6) obtained no therapy and were used as a control. Animals of group 2 (n=5) were treated on the linear accelerator (Novalis, Brain Lab AG, Feldkirchen) at 2 MV with a total dose of 18 Gy. This dose was administered to 3 in fractions of 6 Gy each on days 9, 10 and 11 after inoculation. The animals of group 3 passed through a contrast medium-enhanced radiation therapy on days 9-11 with a total dose of 18 Gy and a tube voltage of 140 kV (Volume Zoom, Siemens Medical Solutions, Erlangen). Six therapy sessions were carried out (2 per day at 4-hour intervals) and in each case a dose of 3 Gy was administered to the animals within 90 seconds. This corresponds to a tumor-dose rate of 2 Gy/minute. […]

Q: With CN(C(=O)CC(=O)N(C)c1c(I)c(C(=O)NC(CO)C(O)CO)c(I)c(C(=O)NC(CO)C(O)CO)c1I)c1c(I)c(C(=O)NC(CO)C(O)CO)c(I)c(C(=O)NC(CO)C(O)CO)c1I (stereo not shown) [Isovist 300, Iotrolan] as the molecule, how does the “time of tumor iodine concentration maximum with plateau after the end of administration” value [1] read?
A: about 1 minute

Q: What about the “survival after contrast medium-enhanced radiation therapy” value [2] of the same molecule?
A: considerable therapeutic advantage

Q: And the “animals showing a significant therapy effect (survival time)” value ([3]; 2 g of iodine/kg i.v. within 6 minutes before each of 6 sessions of 3 Gy within 90 seconds, 140 kV, total 18 Gy)?
A: 2 of 6

Q: And the “therapeutic result relative to standard therapy on the linear accelerator” value ([3]; same total dose 18 Gy, linear accelerator 2 MV, 3 fractions of 6 Gy)?
A: therapeutic advantage
